In brackets after ≈: the same amount, converted by molar mass.
Tests used:
K562/Adr [1] = assay: Growth inhibiting effect of PA on drug resistant cells (MTT); type: cell-based; conditions: Homo sapiens, PA alone, read-out: IC50 growth inhibition
Procedure: (§1) Methods: 1×10^3 cells per well were inoculated onto a 96-well plate. PA was added to K562/Adr directly and to KBV200 and MCF-7/Adr after adhesion. The concentrations of the drugs were 0, 0.1, 0.5, 1, 5, 10, 20, 40, 80, 160 μg/mL. MTT was determined according to the method of example 2 and the IC50 was calculated. The experiment was repeated three times.

KBv200 [2] = assay: as above; type: cell-based; conditions: Homo sapiens; KBv200, PA alone; read-out: IC50 growth inhibition
Procedure: as §1

MCF-7/Adr [3] = assay: as above; type: cell-based; conditions: Homo sapiens, NCI/ADR-RES, PA alone, read-out: IC50 growth inhibition
Procedure: as §1

K562/Adr cells = assay: Sensitizing effect of PA to conventional chemotherapeutic drugs (MTT); type: cell-based, human; conditions: for RF (Ctrl/S), Adr / RF (Ctrl/S), DDP / RF (Ctrl/S), Taxol / RF (Ctrl/S), Vin: IC50 without sensitizer / with sensitizer 10 μg/mL
Procedure: (§2) The cells at logarithmic phase were collected and added into RPMI 1640 medium (containing 10% fetal bovine serum) to make cell suspensions. The cell suspension was added to 96-well plate at 100 μl per well, and the cell number was 2×10^3 (suspending cells) or 1×10^3 (adherent cells) per well. After inoculation, the suspending cells were adapted for half an hour on the plate and the adherent cells were cultivated to allow adhesion before the drugs were added. The control groups (Ctrl) were added with anti-tumor drugs but without PA. The drug concentration of each PA group was 10 μg/mL. The concentrations of chemotherapeutic drugs increased from 0.001 μg/mL to 20 μg/mL. There Were six parallel repeated wells for every concentration gradient. RPMI 1640 was added up to a finally volume of 200 μl per well. The cells were cultured at the condition of 37° C., saturated humidity, 5% CO2 for 68 hours. The MTT was determined and the IC50 was calculated as in example 4.
(§3) The formula of resistant factor: Resistant Factor (RF)=the IC50 without sensitizer/the IC50 with sensitizer.

KBv200 cells = assay: as above; type: cell-based, human; conditions: for RF (Ctrl/S), Adr / RF (Ctrl/S), DDP / RF (Ctrl/S), Taxol / RF (Ctrl/S), Vin: KBv200, IC50 without sensitizer / with sensitizer 10 μg/mL
Procedure: as §2, §3

MCF-7/Adr cells = assay: as above; type: cell-based, human; conditions: for RF (Ctrl/S), Adr / RF (Ctrl/S), DDP / RF (Ctrl/S), Taxol / RF (Ctrl/S), Vin: IC50 without sensitizer / with sensitizer 10 μg/mL
Procedure: as §2, §3

K562 = assay: MTT drug resistance determination to conventional chemotherapeutic drugs; type: cell-based, human; conditions: Homo sapiens, K562, drug alone, 68 h, read-out: IC50
Text: (§4) The following cell lines were used: K562 (human chronic myeloid leukemia cell line) and K562/Adr (a cell line with drug-resistance to chemotherapeutic drugs such as Adriamycin induced by a long-term exposure to a low dosage of Adriamycin); KB (human oral epithelia cell line) and KBv200 (a cell line with drug-resistance to chemotherapeutic drugs such as Vincristine induced by a long-term exposure to a low dosage of Vincristine); MCF-7 (human mammary cancer cell line) and MCF-7/Adr (a cell line with drug-resistance to chemotherapeutic drugs such as Adriamycin induced by a long-term exposure to a low dosage of Adriamycin). All the cell lines mentioned above were purchased from Institute of Hematology, Chinese Academy of Medical Sciences.
(§5) Half-inhibitory concentration (IC50) was calculated by the GraphPad Prism software (San Diego, Calif.). Drug reaction was analyzed by Sigmoldal non-linear regression model.
(§6) The cells at logarithmic phase were collected and added into RPMI 1640 medium (containing 10% fetal bovine serum) to prepare a cell suspension. Then the cell suspension was plated onto a 96-well plate at 100 μl per well (1×10^4 cell/well). Adriamycin, Vincristine, Taxol, cisplatin of different concentration gradients were directly added to the semi-suspending cells (K562 and K562/Adr). The adherent cells were cultured for 24 hours after inoculation so that they could adhere completely, and then the drugs mentioned above in different concentrations were added. There were six parallel repeated wells for every concentration gradient. The medium was added up to a final volume of 200 μl per well. The cells were cultured at the condition of 37° C., saturated humidity, 5% CO2 for 68 hours. 50 μl MTT (2 mg/mL) per well was added. The 96-well plate was centrifuged and the supernatant was removed. Then 120 μl DMSO per well was added and vibrated by vibrator. The OD value was determined at a wavelength of 590 nm by enzyme labeling instrument after the crystal was dissolved completely.
(§7) The calculating method: IC50=drug concentration when the inhibitory rate was 50%.
(§8) Drug resistant factor (RF)=the IC50 of the drug resistant cells/the IC50 of the sensitive cells.

KB = assay: as above; type: cell-based, human; conditions: Homo sapiens, drug alone, 68 h, read-out: IC50
Text: as §4, §5, §6, §7, §8

MCF-7 = assay: as above; type: cell-based, human; conditions: Homo sapiens, MCF7, MCF-7, drug alone, 68 h, read-out: IC50
Text: as §4, §5, §6, §7, §8

K562/Adr [4] = assay: as above; type: cell-based, human
Text: as §4
The multi-drug resistant cell line of K562/Adr is mainly characterized by the concurrency of multiple resistant mechanisms including the increased expression of P-gp and Bcl-2 family proteins, and the enhanced activity of glyoxalase I, etc. K562/Adr is resistant to Adriamycin 20 folds more than K562, and cross-resistant to Vincristine, Daunomycin, Mitoxantrone, Taxol, etc.
as §5, §6, §7, §8

KBv200 [5] = assay: as above; type: cell-based, human
Text: as §4
The multi-drug resistant cell line, of KBv200 is also mainly characterized by the concurrency of multiple resistant mechanisms including the increased expression of P-gp and Bcl-2 family proteins, and the enhanced activity of glyoxalase I, etc. KBv200 is resistant to Vincristine more than 100 folds in comparison with KB, and cross-resistant to […], Daunomycin, Mitoxantrone, Taxol, etc.
as §5, §6, §7, §8

MCF-7/Adr [6] = assay: as above; type: cell-based, human
Text: as §4
Similarly, the multi-drug resistant cell line of MCF-7/Adr is also mainly characterized by the concurrency of multiple resistant mechanisms including the increased expression of P-gp and Bcl-2 family proteins, and the enhanced activity of glyoxalase I, etc.
as §5, §6, §7, §8

With `CCCCC1OC(=O)C2=C1CCC=C2` (single isomer, unassigned) [S1] the IC50 (K562/Adr [1]) was 21.4 ± 1.09 µg/mL (≈ 111 µM), the IC50 (KBv200 [2]) was 38.7 ± 2.13 µg/mL (≈ 201 µM) and the IC50 (MCF-7/Adr [3]) was 37.4 ± 3.15 µg/mL (≈ 195 µM). For the same molecule, the “RF (Ctrl/S), Adr” value (K562/Adr cells) was 34.99, the “RF (Ctrl/S), DDP” value (K562/Adr cells) was 5.116 and the “RF (Ctrl/S), Taxol” value (K562/Adr cells) was 24.04. The “RF (Ctrl/S), Vin” value (K562/Adr cells) was 6.214, the “RF (Ctrl/S), Adr” value (KBv200 cells) was 10.27 and the “RF (Ctrl/S), DDP” value (KBv200 cells) was 8.063. The “RF (Ctrl/S), Taxol” value (KBv200 cells) was 5.245, the “RF (Ctrl/S), Vin” value (KBv200 cells) was 13.03 and the “RF (Ctrl/S), Adr” value (MCF-7/Adr cells) was 11.34. The “RF (Ctrl/S), DDP” value (MCF-7/Adr cells) was 3.376, the “RF (Ctrl/S), Taxol” value (MCF-7/Adr cells) was 2.685 and the “RF (Ctrl/S), Vin” value (MCF-7/Adr cells) was 11.12.
In the case of `CCC/C=C1\OC(=O)C2=C1CCC1OC21` (single isomer, unassigned) [S3], the IC50 (K562/Adr [1]) is reported as 39.2 ± 1.58 µg/mL (≈ 190 µM), the IC50 (KBv200 [2]) is reported as 27.4 ± 1.06 µg/mL (≈ 133 µM) and the IC50 (MCF-7/Adr [3]) is reported as 34 ± 3.76 µg/mL (≈ 165 µM). The “RF (Ctrl/S), Adr” value (K562/Adr cells) was 13.93, the “RF (Ctrl/S), DDP” value (K562/Adr cells) was 2.239 and the “RF (Ctrl/S), Taxol” value (K562/Adr cells) was 5.740. The “RF (Ctrl/S), Vin” value (K562/Adr cells) was 4.899, the “RF (Ctrl/S), Adr” value (KBv200 cells) was 18.97 and the “RF (Ctrl/S), DDP” value (KBv200 cells) was 7.188. For the same molecule, the “RF (Ctrl/S), Taxol” value (KBv200 cells) was 2.548, the “RF (Ctrl/S), Vin” value (KBv200 cells) was 6.169 and the “RF (Ctrl/S), Adr” value (MCF-7/Adr cells) was 4.153. The “RF (Ctrl/S), DDP” value (MCF-7/Adr cells) was 6.708, the “RF (Ctrl/S), Taxol” value (MCF-7/Adr cells) was 3.232 and the “RF (Ctrl/S), Vin” value (MCF-7/Adr cells) was 4.008.
`CCC/C=C1\OC(=O)C2=C1CCC(O)C2O` (single isomer, unassigned) [S5] showed an IC50 (K562/Adr [1]) of 18.3 ± 0.762 µg/mL (≈ 81.6 µM), an IC50 (KBv200 [2]) of 29.8 ± 1.05 µg/mL (≈ 133 µM) and an IC50 (MCF-7/Adr [3]) of 39.3 ± 2.14 µg/mL (≈ 175 µM). For the same molecule, the “RF (Ctrl/S), Adr” value (K562/Adr cells) was 6.264, the “RF (Ctrl/S), DDP” value (K562/Adr cells) was 2.104 and the “RF (Ctrl/S), Taxol” value (K562/Adr cells) was 2.117. For the same molecule, the “RF (Ctrl/S), Vin” value (K562/Adr cells) was 3.109, the “RF (Ctrl/S), Adr” value (KBv200 cells) was 16.95 and the “RF (Ctrl/S), DDP” value (KBv200 cells) was 3.208. The “RF (Ctrl/S), Taxol” value (KBv200 cells) was 13.88, the “RF (Ctrl/S), Vin” value (KBv200 cells) was 2.088 and the “RF (Ctrl/S), Adr” value (MCF-7/Adr cells) was 5.02. The “RF (Ctrl/S), DDP” value (MCF-7/Adr cells) was 4.508, the “RF (Ctrl/S), Taxol” value (MCF-7/Adr cells) was 15.62 and the “RF (Ctrl/S), Vin” value (MCF-7/Adr cells) was 6.934.
`COc1cccc2c1C(=O)c1c(O)c3c(c(O)c1C2=O)C[C@@](O)(C(=O)CO)C[C@@H]3O[C@H]1C[C@H](N)[C@H](O)[C@H](C)O1` [Adr, doxorubicin] was tested, and the IC50 (K562) was 0.215 ± 0.152 µg/mL (≈ 0.396 µM), the IC50 (KB) was 0.49 ± 0.176 µg/mL (≈ 0.902 µM) and the IC50 (MCF-7) was 0.312 ± 0.143 µg/mL (≈ 0.574 µM). The IC50 (K562/Adr [4]; Homo sapiens, K562/Adr, drug alone, 68 h, MTT, read-out: IC50) was 14.1 ± 0.35 µg/mL (≈ 25.9 µM), the “RF (drug resistant factor)” value (K562/Adr [4]; IC50 K562/Adr / IC50 K562) was 65.39 and the “Resistance of K562/Adr relative to K562” value (K562/Adr [4]; description of cell line) was 20 folds. For the same molecule, the IC50 (KBv200 [5]; Homo sapiens, KBv200, drug alone, 68 h, MTT, read-out: IC50) was 16.3 ± 1.03 µg/mL (≈ 30 µM), the “RF (drug resistant factor)” value (KBv200 [5]; IC50 KBv200 / IC50 KB) was 33.22 and the IC50 (MCF-7/Adr [6]; Homo sapiens, NCI/ADR-RES, MCF-7/Adr, drug alone, 68 h, MTT, read-out: IC50) was 19 ± 0.67 µg/mL (≈ 34.9 µM). The “RF (drug resistant factor)” value (MCF-7/Adr [6]; IC50 MCF-7/Adr / IC50 MCF-7) was 59.07, the IC50 (K562/Adr cells; Homo sapiens, drug alone, 68 h, read-out: IC50 of anti-tumor drug, Ctrl (without PA)) was 7.67 ± 0.16 µg/mL and the IC50 (KBv200 cells; Homo sapiens, KBv200, drug alone, 68 h, read-out: IC50 of anti-tumor drug, Ctrl (without PA)) was 4.39 ± 0.336 µg/mL. For the same molecule, the IC50 (MCF-7/Adr cells; Homo sapiens, NCI/ADR-RES, drug alone, 68 h, read-out: IC50 of anti-tumor drug, Ctrl (without PA)) was 6.32 ± 0.775 µg/mL.
